The subject of data set [1] is Erwinia amylovora streptomycin sensitive strain (435s). The experiment in a line: Detached apple flower assay for fire blight blossom infection, streptomycin sensitive strain. It is filed as in vivo. The following applies: Streptomycin 17 0.6 g/L; 7 days after inoculation; FIG. 12. Here is the method:
(§1) Refrigerated dormant 2-year potted apple trees (cv Gala) were forced to bloom at room temperature in late March 2019. Fresh individual flowers were handpicked as they bloomed and placed in small vials containing 10% sucrose, ensuring their pedicels were submerged. The vials were inserted in racks that were placed in small air-tight boxes for incubation at 25° C. A thin layer of a glycerol water solution (33% w/w) in each box maintained constant humidity. Flowers were individually inoculated directly in the hypanthium with 10 μL of a 10^5 CFU/mL suspension of Erwinia amylovora in PBS with Tween 20 at 0.1% w/w. Half the flowers were inoculated with a streptomycin resistant strain (1535m5) collected in Oregon, USA, and the other half with a local streptomycin sensitive strain (435s). […] Approximately 30 minutes after inoculation, 10 randomly selected individual flowers of each strain organized in 5 blocks were flooded with 32 μL of each treatment. […] Severity scores excluding streptomycin treated flowers were analyzed with a cumulative link mixed model (clmm) in the “ordinal” package of R(Christensen 2015) using blocks as a random effect. Because of separation, data with streptomycin were analyzed with the “bract” function of the package “brglm2” under R using mean bias reduction (Kosmidis, Pagui, and Sartori 2019). […]

The subject of data set [2] is Erwinia amylovora streptomycin resistant strain (1535m5). The data set can be described thus: Detached apple flower assay for fire blight blossom infection, streptomycin resistant strain. It is filed as in vivo. Conditions: Streptomycin 17 0.6 g/L; 7 days after inoculation; FIG. 12. Here is the method:
as §1

The conditions of data set [3]: concentration similar to body care products; cited from earlier work.
The conditions of data set [4]: Rats fed 300 mg per day; cited from earlier work.
For data set [5] the following is noted: cited from earlier work.

Take `[H]/N=C(/N)N[C@H]1[C@H](O)[C@@H](O)[C@H](O[C@@H]2O[C@@H](C)[C@](O)(C=O)[C@H]2O[C@@H]2O[C@@H](CO)[C@H](O)[C@@H](O)[C@@H]2NC)[C@@H](N/C(N)=N\[H])[C@@H]1O` [streptomycin]: the “effect on fire blight on flowers” value was “strongly inhibited fire blight” in data set [1] and “no effect” in data set [2].

Turning to `C/C=C/C=C/C(=O)[O-].[K+]` [potassium sorbate], in data set [3], the irritation and sensitization result is “practically non-irritating and non-sensitizing”. Also, in data set [4], the effects of feeding result is reported as “no observed deleterious effects”. Besides, the acceptable daily intake in data set [5] (European Food Safety Authority (EFSA)) is listed as 3 mg per kg of body weight per day. Further, the “maximum acceptable daily intake for humans” value in data set [5] (USA) is 25 mg per kg of body weight per day.
